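Compound exposure: 48 hours, 5 concentrations, 96-well plates. At the GI50, growth is halved. Definition used: TGI = concentration required for complete inhibition of growth.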
Columns and labels:
Assay in all cases: growth of human tumour cells (NCI), 48 h
786-0 renal = test system: 786-0 renal
A498 renal = test system: A498 renal
A549 NSCLC = test system: A549 NSCLC
ACHN renal = test system: ACHN renal
BT-549 breast = test system: BT-549 breast
CAKI-1 renal = test system: CAKI-1 renal
CCRF-CEM leukemia = test system: CCRF-CEM leukemia
COLO 205 colon = test system: COLO 205 colon
DU-145 prostate = test system: DU-145 prostate
EKVX NSCLC = test system: EKVX NSCLC
HCC-2998 colon = test system: HCC-2998 colon
HCT-116 colon = test system: HCT-116 colon
HCT-15 colon = test system: HCT-15 colon
HL-60(TB) leukemia = test system: HL-60(TB) leukemia
HOP-62 NSCLC = test system: HOP-62 NSCLC
HOP-92 NSCLC = test system: HOP-92 NSCLC
HS 578T breast = test system: HS 578T breast
HT29 colon = test system: HT29 colon
IGROV1 ovarian = test system: IGROV1 ovarian
K-562 leukemia = test system: K-562 leukemia
KM12 colon = test system: KM12 colon
LOX IMVI melanoma = test system: LOX IMVI melanoma
M14 melanoma = test system: M14 melanoma
MALME-3M melanoma = test system: MALME-3M melanoma
MCF7 breast = test system: MCF7 breast
MDA-MB-231 breast = test system: MDA-MB-231 breast
MDA-MB-435 = test system: MDA-MB-435
MOLT-4 leukemia = test system: MOLT-4 leukemia
NCI-H226 lung = test system: NCI-H226 lung
NCI-H23 lung = test system: NCI-H23 lung
NCI-H460 lung = test system: NCI-H460 lung
NCI-H522 lung = test system: NCI-H522 lung
NCI/ADR-RES ovarian = test system: NCI/ADR-RES ovarian
OVCAR-3 ovarian = test system: OVCAR-3 ovarian
OVCAR-4 ovarian = test system: OVCAR-4 ovarian
OVCAR-5 ovarian = test system: OVCAR-5 ovarian
OVCAR-8 ovarian = test system: OVCAR-8 ovarian
PC-3 prostate = test system: PC-3 prostate
RPMI-8226 leukemia = test system: RPMI-8226 leukemia
RXF 393 renal = test system: RXF 393 renal
SF-268 CNS = test system: SF-268 CNS
SF-295 CNS = test system: SF-295 CNS
SF-539 CNS = test system: SF-539 CNS
SK-MEL-2 melanoma = test system: SK-MEL-2 melanoma
SK-MEL-28 melanoma = test system: SK-MEL-28 melanoma
SK-MEL-5 melanoma = test system: SK-MEL-5 melanoma
SK-OV-3 ovarian = test system: SK-OV-3 ovarian
SN12C renal = test system: SN12C renal
SNB-19 CNS = test system: SNB-19 CNS
SNB-75 CNS = test system: SNB-75 CNS
SR leukemia = test system: SR leukemia
SW-620 colon = test system: SW-620 colon
T-47D breast = test system: T-47D breast
TK-10 renal = test system: TK-10 renal
U251 CNS = test system: U251 CNS
UACC-257 melanoma = test system: UACC-257 melanoma
UACC-62 melanoma = test system: UACC-62 melanoma
UO-31 renal = test system: UO-31 renal

## O=C(N/N=C/c1ccncc1)c1ccc(F)cc1
786-0 renal
  GI50: > 40000 nM
  TGI: > 40 µM
A498 renal
  GI50: 34.8 µM
  TGI: > 40000 nM
A549 NSCLC
  GI50: > 40000 nM
  TGI: > 40 µM
ACHN renal
  GI50: > 40000 nM
  TGI: > 40 µM
BT-549 breast
  GI50: > 40000 nM
  TGI: > 40 µM
CAKI-1 renal
  GI50: > 40000 nM
  TGI: > 40 µM
CCRF-CEM leukemia
  GI50: > 40000 nM
  TGI: > 40 µM
COLO 205 colon
  GI50: > 40000 nM
  TGI: > 40 µM
DU-145 prostate
  GI50: > 40000 nM
  TGI: > 40 µM
EKVX NSCLC
  GI50: > 40000 nM
  TGI: > 40 µM
HCC-2998 colon
  GI50: > 40000 nM
  TGI: > 40 µM
HCT-116 colon
  GI50: > 40000 nM
  TGI: > 40 µM
HCT-15 colon
  GI50: > 40000 nM
  TGI: > 40 µM
HL-60(TB) leukemia
  GI50: > 40000 nM
  TGI: > 40 µM
HOP-62 NSCLC
  GI50: > 40000 nM
  TGI: > 40 µM
HOP-92 NSCLC
  GI50: > 40000 nM
  TGI: > 40 µM
HS 578T breast
  GI50: > 40000 nM
  TGI: > 40 µM
HT29 colon
  GI50: > 40000 nM
  TGI: > 40 µM
IGROV1 ovarian
  GI50: > 40000 nM
  TGI: > 40 µM
K-562 leukemia
  GI50: > 40000 nM
  TGI: > 40 µM
KM12 colon
  GI50: > 40000 nM
  TGI: > 40 µM
LOX IMVI melanoma
  GI50: > 40000 nM
  TGI: > 40 µM
M14 melanoma
  GI50: > 40000 nM
  TGI: > 40 µM
MALME-3M melanoma
  GI50: > 40 µM
  TGI: > 40 µM
MCF7 breast
  GI50: > 40000 nM
  TGI: > 40 µM
MDA-MB-231 breast
  GI50: > 40000 nM
  TGI: > 40 µM
MDA-MB-435
  GI50: > 40000 nM
  TGI: > 40000 nM
MOLT-4 leukemia
  GI50: > 40000 nM
  TGI: > 40 µM
NCI-H226 lung
  GI50: > 40000 nM
  TGI: > 40 µM
NCI-H23 lung
  GI50: > 40000 nM
  TGI: > 40 µM
NCI-H460 lung
  GI50: > 40000 nM
  TGI: > 40 µM
NCI-H522 lung
  GI50: > 40000 nM
  TGI: > 40 µM
NCI/ADR-RES ovarian
  GI50: > 40000 nM
  TGI: > 40 µM
OVCAR-3 ovarian
  GI50: > 40000 nM
  TGI: > 40000 nM
OVCAR-4 ovarian
  GI50: > 40000 nM
  TGI: > 40 µM
OVCAR-5 ovarian
  GI50: > 40000 nM
  TGI: > 40 µM
OVCAR-8 ovarian
  GI50: > 40000 nM
  TGI: > 40 µM
PC-3 prostate
  GI50: > 40000 nM
  TGI: > 40 µM
RPMI-8226 leukemia
  GI50: > 40000 nM
  TGI: > 40 µM
RXF 393 renal
  GI50: > 40000 nM
  TGI: > 40 µM
SF-268 CNS
  GI50: > 40000 nM
  TGI: > 40 µM
SF-295 CNS
  GI50: > 40000 nM
  TGI: > 40 µM
SF-539 CNS
  GI50: > 40000 nM
  TGI: > 40000 nM
SK-MEL-2 melanoma
  GI50: > 40000 nM
  TGI: > 40 µM
SK-MEL-28 melanoma
  GI50: > 40000 nM
  TGI: > 40 µM
SK-MEL-5 melanoma
  GI50: > 40000 nM
  TGI: > 40000 nM
SK-OV-3 ovarian
  GI50: > 40000 nM
  TGI: > 40 µM
SN12C renal
  GI50: > 40000 nM
  TGI: > 40 µM
SNB-19 CNS
  GI50: > 40000 nM
  TGI: > 40 µM
SNB-75 CNS
  GI50: > 40000 nM
  TGI: > 40 µM
SR leukemia
  GI50: > 40000 nM
  TGI: > 40 µM
SW-620 colon
  GI50: > 40000 nM
  TGI: > 40 µM
T-47D breast
  GI50: > 40 µM
  TGI: > 40 µM
TK-10 renal
  GI50: > 40000 nM
  TGI: > 40 µM
U251 CNS
  GI50: > 40000 nM
  TGI: > 40 µM
UACC-257 melanoma
  GI50: > 40 µM
  TGI: > 40 µM
UACC-62 melanoma
  GI50: > 40000 nM
  TGI: > 40 µM
UO-31 renal
  GI50: > 40000 nM
  TGI: > 40 µM

## COc1ccc(/C=C\c2cc(OC)c(OC)c(OC)c2)c(NS(=O)(=O)c2ccc(F)cc2)c1O
786-0 renal
  GI50: 294 nM
  TGI: 47.5 µM
A498 renal
  GI50: 0.0235 µM
  TGI: 96.6 nM
A549 NSCLC
  GI50: 164 nM
  TGI: > 100 µM
ACHN renal
  GI50: 189 nM
  TGI: 96.9 µM
BT-549 breast
  GI50: 61.9 nM
  TGI: 16.8 µM
CAKI-1 renal
  GI50: 115 nM
  TGI: > 100 µM
CCRF-CEM leukemia
  GI50: 43.5 nM
  TGI: > 100 µM
COLO 205 colon
  GI50: 1930 nM
  TGI: 7.94 µM
DU-145 prostate
  GI50: 39 nM
EKVX NSCLC
  GI50: 466 nM
  TGI: > 100 µM
HCC-2998 colon
  GI50: 169 nM
  TGI: 6.9 µM
HCT-116 colon
  GI50: 42.8 nM
  TGI: > 100 µM
HCT-15 colon
  GI50: 75.2 nM
  TGI: > 100 µM
HL-60(TB) leukemia
  GI50: 32 nM
  TGI: 23.8 µM
HOP-62 NSCLC
  GI50: 610 nM
  TGI: > 100 µM
HOP-92 NSCLC
  GI50: 72.3 nM
  TGI: 16.7 µM
HS 578T breast
  GI50: 113 nM
  TGI: > 100 µM
HT29 colon
  GI50: 2280 nM
  TGI: 20.5 µM
IGROV1 ovarian
  GI50: 212 nM
  TGI: > 100 µM
K-562 leukemia
  GI50: 35.3 nM
  TGI: > 76 µM
KM12 colon
  GI50: 55.6 nM
  TGI: > 100 µM
LOX IMVI melanoma
  GI50: 142 nM
  TGI: 36.8 µM
M14 melanoma
  GI50: 32.6 nM
  TGI: > 100 µM
MALME-3M melanoma
  GI50: 10.2 µM
  TGI: > 100 µM
MCF7 breast
  GI50: 48.3 nM
  TGI: > 46.3 µM
MDA-MB-231 breast
  GI50: 97.7 nM
  TGI: 70.9 µM
MDA-MB-435
  GI50: 20.4 nM
  TGI: 51.5 nM
MOLT-4 leukemia
  GI50: 46.6 nM
  TGI: > 100 µM
NCI-H226 lung
  GI50: 142 nM
NCI-H23 lung
  GI50: 128 nM
  TGI: > 62.4 µM
NCI-H460 lung
  GI50: 41.9 nM
  TGI: 26.1 µM
NCI-H522 lung
  GI50: 222 nM
  TGI: 15 µM
NCI/ADR-RES ovarian
  GI50: 179 nM
  TGI: 3.4 µM
OVCAR-3 ovarian
  GI50: 32.2 nM
  TGI: 1410 nM
OVCAR-4 ovarian
  GI50: 552 nM
  TGI: > 100 µM
OVCAR-5 ovarian
  GI50: 202 nM
  TGI: > 100 µM
OVCAR-8 ovarian
  GI50: 128 nM
  TGI: > 100 µM
PC-3 prostate
  GI50: 42.8 nM
  TGI: > 70.8 µM
RPMI-8226 leukemia
  GI50: 44.8 nM
  TGI: 18.9 µM
RXF 393 renal
  GI50: 54.2 nM
  TGI: > 100 µM
SF-268 CNS
  GI50: 224 nM
  TGI: > 100 µM
SF-295 CNS
  GI50: 214 nM
  TGI: > 45.9 µM
SF-539 CNS
  GI50: 62.2 nM
  TGI: 192 nM
SK-MEL-2 melanoma
  GI50: 184 nM
  TGI: > 100 µM
SK-MEL-28 melanoma
  GI50: 484 nM
  TGI: > 100 µM
SK-MEL-5 melanoma
  GI50: 102 nM
  TGI: 515 nM
SK-OV-3 ovarian
  GI50: 211 nM
  TGI: > 100 µM
SN12C renal
  GI50: 180 nM
  TGI: > 100 µM
SNB-19 CNS
  GI50: 156 nM
  TGI: > 100 µM
SNB-75 CNS
  GI50: 34.9 nM
  TGI: > 100 µM
SR leukemia
  GI50: 41 nM
  TGI: > 68.1 µM
SW-620 colon
  GI50: 43.4 nM
  TGI: > 100 µM
T-47D breast
  GI50: 38.5 µM
  TGI: > 100 µM
TK-10 renal
  GI50: 2250 nM
  TGI: > 100 µM
U251 CNS
  GI50: 142 nM
  TGI: > 100 µM
UACC-257 melanoma
  GI50: 20.5 µM
  TGI: > 100 µM
UACC-62 melanoma
  GI50: 45.2 nM
  TGI: > 80.1 µM
UO-31 renal
  GI50: 333 nM
  TGI: > 82.9 µM
